Tests used:
α-glucosidase enzyme = α-glucosidase enzyme (Saccharomyces cerevisiae, UniProt P53341); format: biochemical
Method: To find out the α-glucosidase inhibition, kinetic studies were carried out using different concentrations of the inhibitors (0.0624, 0.3, 0.125, 0.4 mM) and different concentrations of substrate inhibitor (p-nitrophenol R-D maltoside NMP). Samples of 0.1, 0.2, 0.4, 0.8, and 1.0 mM (0.2 mg/mL) concentration were prepared in de-ionized water with the enzyme. PIPES buffer was used to adjust the pH of the solution. This solution was incubated for 30 min at 25 °C and the absorbance was recorded on an ELISA reader in 96-well plates. Kinetic parameters like Vmax, AICs, Km, and R2 were calculated using sigma plot enzyme kinetic software.

Sequence of α-glucosidase enzyme (P53341 whole entry): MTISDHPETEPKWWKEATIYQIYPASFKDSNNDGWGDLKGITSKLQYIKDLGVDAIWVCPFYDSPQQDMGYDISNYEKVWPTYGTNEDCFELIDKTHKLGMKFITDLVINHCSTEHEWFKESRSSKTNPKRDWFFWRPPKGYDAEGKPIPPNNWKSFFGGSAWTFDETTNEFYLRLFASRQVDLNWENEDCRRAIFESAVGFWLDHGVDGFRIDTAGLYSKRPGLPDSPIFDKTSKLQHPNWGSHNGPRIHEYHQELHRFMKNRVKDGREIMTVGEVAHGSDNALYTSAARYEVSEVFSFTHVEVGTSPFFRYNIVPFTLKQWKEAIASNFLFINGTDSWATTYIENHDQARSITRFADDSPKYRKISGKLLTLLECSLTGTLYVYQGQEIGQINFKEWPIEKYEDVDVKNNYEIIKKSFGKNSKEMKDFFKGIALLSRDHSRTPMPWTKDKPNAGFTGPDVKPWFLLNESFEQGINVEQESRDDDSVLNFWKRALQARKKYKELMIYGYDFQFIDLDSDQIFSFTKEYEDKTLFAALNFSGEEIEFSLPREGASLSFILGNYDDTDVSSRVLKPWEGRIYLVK

SMILES	melting point [°C]	further results
COc1cccc(/C(Cn2nnc3ccccc32)=N\N=C\c2cc(Cl)cc(Cl)c2O)c1 [Compound 1, 2-((E)-(((E)-2-(1H-benzo[d][1,2, 3]triazol-1-yl)-1-(3-methoxyphenyl)ethylidene) hydrazono)methyl)-4,6-dichlorophenol]	195 to 196	fold lower potency than compound (9) (α-glucosidase enzyme; comparator compound 9): four-fold
COc1cccc(/C(Cn2nnc3ccccc32)=N\N=C\c2cccc([N+](=O)[O-])c2)c1 [Compound 2, 1-((E)-2-(3-methoxyphenyl)-2-(((E)-3-nitrobenzylidene)hydrazono)ethyl)-1H-benzo[d] [1,2, 3]triazole]	192 to 193	fold lower potency than compound (12) (α-glucosidase enzyme; comparator compound 12): two-fold
O=[N+]([O-])c1cccc(/C=N/N=C(/Cn2nnc3ccccc32)c2ccc(Br)cc2)c1 [Compound 3, 1-((E)-2-(4-bromophenyl)-2-(((E)-3-nitrobenzylidene)hydrazono)ethyl)-1H-benzo[d] [1,2, 3]triazole]	196 to 197	
Brc1ccc(/C(Cn2nnc3ccccc32)=N\N=C\c2c3ccccc3cc3ccccc23)cc1 [Compound 4, 1-((E)-2-(((E)-anthracen-9-ylmethylene)hydrazono)-2-(4-bromophenyl)ethyl)-1H-benzo[d] [1,2, 3]triazole]	201 to 202	potency against α-glucosidase compared with standard acarbose (in words) (α-glucosidase enzyme): less potent than standard acarbose
Oc1c(Cl)cc(Cl)cc1/C=N/N=C(/Cn1nnc2ccccc21)c1ccc(Br)cc1 [Compound 5, 2-((E)-(((E)-2-(1H-benzo[d][1,2, 3]triazol-1-yl)-1-(4-bromophenyl)ethylidene) hydrazono)methyl)-4,6-dichlorophenol]	196 to 197	fold lowering of enzymatic activity relative to scaffold (10) (α-glucosidase enzyme; comparator scaffold 10): four-fold
O=[N+]([O-])c1ccc(/C=N/N=C(/Cn2nnc3ccccc32)c2ccc(Br)cc2)cc1 [Compound 6, 1-((E)-2-(4-bromophenyl)-2-(((E)-4-nitrobenzylidene)hydrazono)ethyl)-1H-benzo[d] [1,2, 3]triazole]	196 to 197	potency relative to compound (3) (α-glucosidase enzyme; comparator compound 3): half
Brc1ccc(/C(Cn2nnc3ccccc32)=N\N=C\c2ccc3ccccc3c2)cc1 [Compound 7, 1-((E)-2-(4-bromophenyl)-2-(((E)-naphthalen-2-ylmethylene)hydrazono)ethyl)-1H-benzo[d] [1,2, 3]triazole]	196 to 197	potency against α-glucosidase compared with standard acarbose (in words) (α-glucosidase enzyme): less potent than standard acarbose
O=Cc1ccc(/C=N/N=C(/Cn2nnc3ccccc32)c2ccc(Br)cc2)cc1 [Compound 8, 4-((E)-(((E)-2-(1H-benzo[d][1,2, 3]triazol-1-yl)-1-(4-bromophenyl)ethylidene) hydrazono)methyl)benzaldehyde]	193 to 194	potency against α-glucosidase compared with standard acarbose (in words) (α-glucosidase enzyme): less potent than standard acarbose
O=[N+]([O-])c1cccc(/C(Cn2nnc3ccccc32)=N\N=C\c2cc(Cl)cc(Cl)c2O)c1 [Compound 9, 2-((E)-(((E)-2-(1H-benzo[d][1,2, 3]triazol-1-yl)-1-(3-nitrophenyl)ethylidene) hydrazono)methyl)-4,6-dichlorophenol]	197 to 198	potency relative to standard acarbose (fold greater) (α-glucosidase enzyme; compared to standard acarbose): nine-fold
O=[N+]([O-])c1ccc(/C(Cn2nnc3ccccc32)=N\N=C\c2cc(Cl)cc(Cl)c2O)cc1 [Compound 10, 2-((E)-(((E)-2-(1H-benzo[d][1,2, 3]triazol-1-yl)-1-(4-nitrophenyl)ethylidene) hydrazono)methyl)-4,6-dichlorophenol]	197 to 198	
O=[N+]([O-])c1ccc(/C(Cn2nnc3ccccc32)=N\N=C\c2cccc([N+](=O)[O-])c2)cc1 [Compound 11, 1-((E)-2-(((E)-3-nitrobenzylidene)hydrazono)-2-(4-nitrophenyl)ethyl)-1H-benzo[d] [1,2, 3]triazole]	191 to 192	
O=[N+]([O-])c1ccc(/C=N/N=C(/Cn2nnc3ccccc32)c2ccc([N+](=O)[O-])cc2)cc1 [Compound 12, 1-((E)-2-(((E)-4-nitrobenzylidene)hydrazono)-2-(4-nitrophenyl)ethyl)-1H-benzo[d] [1,2, 3]triazole]	191 to 192	inhibition profile relative to scaffold (11) (α-glucosidase enzyme; comparator scaffold 11): half
Oc1c(Cl)cc(Cl)cc1/C=N/N=C(/Cn1nnc2ccccc21)c1ccc(Cl)cc1Cl [Compound 13, 2-((E)-(((E)-2-(1H-benzo[d][1,2, 3]triazol-1-yl)-1-(2,4-dichlorophenyl)ethylidene) hydrazono)methyl)-4,6-dichlorophenol]	199 to 200	fold enhancement of α-glucosidase activity relative to compound (1) (α-glucosidase enzyme; comparator compound 1): three-fold
O=[N+]([O-])c1cccc(/C=N/N=C(/Cn2nnc3ccccc32)c2ccc(Cl)cc2Cl)c1 [Compound 14, 1-((E)-2-(2,4-dichlorophenyl)-2-(((E)-3-nitrobenzylidene)hydrazono)ethyl)-1H-benzo[d] [1,2, 3]triazole]	194 to 195	
O=[N+]([O-])c1ccc(/C=N/N=C(/Cn2nnc3ccccc32)c2ccc(Cl)cc2Cl)cc1 [Compound 15, 1-((E)-2-(2,4-dichlorophenyl)-2-(((E)-4-nitrobenzylidene)hydrazono)ethyl)-1H-benzo[d] [1,2, 3]triazole]	194 to 195	
Clc1ccc(/C=N/N=C(/Cn2nnc3ccccc32)c2ccc(Br)cc2)cc1Cl [Compound 17, 1-((E)-2-(4-bromophenyl)-2-(((E)-3,4-dichlorobenzylidene)hydrazono)ethyl)-1H-benzo[d] [1,2, 3]triazole]	198 to 199	potency against α-glucosidase compared with standard acarbose (in words) (α-glucosidase enzyme): less potent than standard acarbose
O=[N+]([O-])c1ccc(/C(Cn2nnc3ccccc32)=N\N=C\c2ccc(Cl)c(Cl)c2)cc1 [Compound 19, 1-((E)-2-(((E)-3,4-dichlorobenzylidene)hydrazono)-2-(4-nitrophenyl)ethyl)-1H-benzo[d] [1,2, 3]triazole]	194 to 195	
O=[N+]([O-])c1ccc(/C(Cn2nnc3ccccc32)=N\N=C\c2ccc(O)cc2)cc1 [Compound 20, 4-((E)-(((E)-2-(1H-benzo[d][1,2, 3]triazol-1-yl)-1-(4-nitrophenyl)ethylidene) hydrazono)methyl)phenol]	190 to 191	

From publication PMC9860641, “Synthesis, In Vitro α-Glucosidase Inhibitory Activity and Molecular Docking Study of New Benzotriazole-Based Bis-Schiff Base Derivatives” (Pharmaceuticals, 2022)
